Laboratory results taken from PubChem BioAssay (NCI).
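48-hour exposure; five concentrations; linearly interpolated endpoints. The concentration for 50% growth inhibition is given as GI50. TGI is the concentration that stops growth completely.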

Assays:
Test in all cases: NCI-60 cell line screen, 48 h; in the data active = GI50 below about 0.43 µM; inactive = the rest
786-0 renal = tested on: 786-0 renal
A498 renal = tested on: A498 renal
A549 NSCLC = tested on: A549 NSCLC
ACHN renal = tested on: ACHN renal
CAKI-1 renal = tested on: CAKI-1 renal
CCRF-CEM leukemia = tested on: CCRF-CEM leukemia
COLO 205 colon = tested on: COLO 205 colon
DU-145 prostate = tested on: DU-145 prostate
EKVX NSCLC = tested on: EKVX NSCLC
HCC-2998 colon = tested on: HCC-2998 colon
HCT-116 colon = tested on: HCT-116 colon
HCT-15 colon = tested on: HCT-15 colon
HL-60(TB) leukemia = tested on: HL-60(TB) leukemia
HOP-62 NSCLC = tested on: HOP-62 NSCLC
HOP-92 NSCLC = tested on: HOP-92 NSCLC
HT29 colon = tested on: HT29 colon
IGROV1 ovarian = tested on: IGROV1 ovarian
K-562 leukemia = tested on: K-562 leukemia
KM12 colon = tested on: KM12 colon
LOX IMVI melanoma = tested on: LOX IMVI melanoma
M14 melanoma = tested on: M14 melanoma
MALME-3M melanoma = tested on: MALME-3M melanoma
MCF7 breast = tested on: MCF7 breast
MDA-MB-231 breast = tested on: MDA-MB-231 breast
MDA-MB-435 = tested on: MDA-MB-435
MDA-N = tested on: MDA-N
MOLT-4 leukemia = tested on: MOLT-4 leukemia
NCI-H226 lung = tested on: NCI-H226 lung
NCI-H23 lung = tested on: NCI-H23 lung
NCI-H460 lung = tested on: NCI-H460 lung
NCI-H522 lung = tested on: NCI-H522 lung
NCI/ADR-RES ovarian = tested on: NCI/ADR-RES ovarian
OVCAR-3 ovarian = tested on: OVCAR-3 ovarian
OVCAR-4 ovarian = tested on: OVCAR-4 ovarian
OVCAR-5 ovarian = tested on: OVCAR-5 ovarian
OVCAR-8 ovarian = tested on: OVCAR-8 ovarian
PC-3 prostate = tested on: PC-3 prostate
RPMI-8226 leukemia = tested on: RPMI-8226 leukemia
RXF 393 renal = tested on: RXF 393 renal
SF-268 CNS = tested on: SF-268 CNS
SF-295 CNS = tested on: SF-295 CNS
SF-539 CNS = tested on: SF-539 CNS
SK-MEL-2 melanoma = tested on: SK-MEL-2 melanoma
SK-MEL-28 melanoma = tested on: SK-MEL-28 melanoma
SK-MEL-5 melanoma = tested on: SK-MEL-5 melanoma
SK-OV-3 ovarian = tested on: SK-OV-3 ovarian
SN12C renal = tested on: SN12C renal
SNB-19 CNS = tested on: SNB-19 CNS
SNB-75 CNS = tested on: SNB-75 CNS
SR leukemia = tested on: SR leukemia
SW-620 colon = tested on: SW-620 colon
T-47D breast = tested on: T-47D breast
TK-10 renal = tested on: TK-10 renal
U251 CNS = tested on: U251 CNS
UACC-257 melanoma = tested on: UACC-257 melanoma
UACC-62 melanoma = tested on: UACC-62 melanoma
UO-31 renal = tested on: UO-31 renal
BT-549 breast = tested on: BT-549 breast
HS 578T breast = tested on: HS 578T breast

N#Cc1c(N)nc2c3c1NC(=O)C(C(N)=O)C3c1ccccc1O2 (stereo not given)
70.6 µM: TGI (NCI-H522 lung)
79.8 µM: TGI (IGROV1 ovarian)
> 100 µM: TGI (786-0 renal) | TGI (A498 renal) | TGI (A549 NSCLC) | TGI (ACHN renal) | TGI (CAKI-1 renal) | TGI (CCRF-CEM leukemia) | TGI (COLO 205 colon) | TGI (DU-145 prostate) | TGI (EKVX NSCLC) | TGI (HCC-2998 colon) | TGI (HCT-116 colon) | TGI (HCT-15 colon) | TGI (HL-60(TB) leukemia) | TGI (HOP-62 NSCLC) | TGI (HT29 colon) | TGI (K-562 leukemia) | TGI (KM12 colon) | TGI (LOX IMVI melanoma) | TGI (M14 melanoma) | TGI (MALME-3M melanoma) | TGI (MCF7 breast) | TGI (MDA-MB-231 breast) | TGI (MDA-MB-435) | TGI (MDA-N) | TGI (MOLT-4 leukemia) | TGI (NCI-H226 lung) | TGI (NCI-H23 lung) | TGI (NCI-H460 lung) | TGI (NCI/ADR-RES ovarian) | TGI (OVCAR-3 ovarian) | TGI (OVCAR-4 ovarian) | TGI (OVCAR-5 ovarian) | TGI (OVCAR-8 ovarian) | TGI (PC-3 prostate) | TGI (RPMI-8226 leukemia) | TGI (RXF 393 renal) | TGI (SF-268 CNS) | TGI (SF-295 CNS) | TGI (SF-539 CNS) | TGI (SK-MEL-2 melanoma) | TGI (SK-MEL-28 melanoma) | TGI (SK-MEL-5 melanoma) | TGI (SK-OV-3 ovarian) | TGI (SN12C renal) | TGI (SNB-19 CNS) | TGI (SNB-75 CNS) | TGI (SR leukemia) | TGI (SW-620 colon) | TGI (T-47D breast) | TGI (TK-10 renal) | TGI (U251 CNS) | TGI (UACC-257 melanoma) | TGI (UACC-62 melanoma) | TGI (UO-31 renal)
71.9 µM: TGI (HOP-92 NSCLC)

O=C(N=Nc1ccccc1Cl)NNc1ccccc1Cl
58.5 µM: TGI (OVCAR-4 ovarian)
94.1 µM: TGI (HCC-2998 colon)
92.6 µM: TGI (ACHN renal)
34.4 µM: TGI (786-0 renal)
67.4 µM: TGI (SK-MEL-2 melanoma)
65.6 µM: TGI (RPMI-8226 leukemia)
53.6 µM: TGI (CCRF-CEM leukemia)
44.9 µM: TGI (HL-60(TB) leukemia)
52.7 µM: TGI (NCI-H522 lung)
81.7 µM: TGI (OVCAR-8 ovarian)
73.1 µM: TGI (K-562 leukemia)
43.2 µM: TGI (IGROV1 ovarian)
95.3 µM: TGI (OVCAR-3 ovarian)
> 100 µM: TGI (A498 renal) | TGI (A549 NSCLC) | TGI (CAKI-1 renal) | TGI (DU-145 prostate) | TGI (HCT-116 colon) | TGI (HCT-15 colon) | TGI (HOP-62 NSCLC) | TGI (HT29 colon) | TGI (M14 melanoma) | TGI (MALME-3M melanoma) | TGI (MDA-MB-231 breast) | TGI (MDA-MB-435) | TGI (MDA-N) | TGI (NCI-H226 lung) | TGI (NCI-H23 lung) | TGI (NCI-H460 lung) | TGI (OVCAR-5 ovarian) | TGI (PC-3 prostate) | TGI (SF-268 CNS) | TGI (SK-MEL-28 melanoma) | TGI (SK-MEL-5 melanoma) | TGI (SN12C renal) | TGI (SNB-19 CNS) | TGI (SNB-75 CNS) | TGI (SR leukemia) | TGI (SW-620 colon) | TGI (T-47D breast) | TGI (TK-10 renal) | TGI (U251 CNS) | TGI (UACC-257 melanoma) | TGI (UACC-62 melanoma) | TGI (UO-31 renal)
44.8 µM: TGI (LOX IMVI melanoma)
82.9 µM: TGI (MOLT-4 leukemia)

Cc1c(C#N)cccc1[C@@H](C)Nc1nnc(C)c2cnc(N3CCOCC3)cc12
inactive: GI50 (786-0 renal) 13.7 µM | GI50 (A498 renal) 2.72 µM | GI50 (A549 NSCLC) 36.2 µM | GI50 (ACHN renal) 21.4 µM | GI50 (BT-549 breast) 13.1 µM | GI50 (CAKI-1 renal) 0.7 µM | GI50 (CCRF-CEM leukemia) 39.2 µM | GI50 (COLO 205 colon) 22.4 µM | GI50 (DU-145 prostate) 27.7 µM | GI50 (EKVX NSCLC) 18.3 µM | GI50 (HCC-2998 colon) 53.9 µM | GI50 (HCT-116 colon) 32.7 µM | GI50 (HCT-15 colon) 31.4 µM | GI50 (HL-60(TB) leukemia) 22.8 µM | GI50 (HOP-62 NSCLC) 43.4 µM | GI50 (HS 578T breast) 12.2 µM | GI50 (HT29 colon) 35.2 µM | GI50 (IGROV1 ovarian) 24 µM | GI50 (KM12 colon) 6.61 µM | GI50 (LOX IMVI melanoma) 27.5 µM | GI50 (M14 melanoma) 27 µM | GI50 (MALME-3M melanoma) 21.4 µM | GI50 (MCF7 breast) 21.4 µM | GI50 (MDA-MB-231 breast) 26.9 µM | GI50 (MDA-MB-435) 18.3 µM | GI50 (MOLT-4 leukemia) 28.3 µM | GI50 (NCI-H226 lung) 23.2 µM | GI50 (NCI-H23 lung) 15.3 µM | GI50 (NCI-H460 lung) 27.7 µM | GI50 (NCI-H522 lung) 17.5 µM | GI50 (NCI/ADR-RES ovarian) 35.5 µM | GI50 (OVCAR-3 ovarian) 14.5 µM | GI50 (OVCAR-4 ovarian) 13.9 µM | GI50 (OVCAR-5 ovarian) 42.2 µM | GI50 (OVCAR-8 ovarian) 38.5 µM | GI50 (PC-3 prostate) 27.8 µM | GI50 (RPMI-8226 leukemia) 25.8 µM | GI50 (RXF 393 renal) 11.3 µM | GI50 (SF-268 CNS) 14.1 µM | GI50 (SF-295 CNS) 21.9 µM | GI50 (SF-539 CNS) 43.1 µM | GI50 (SK-MEL-2 melanoma) 21.1 µM | GI50 (SK-MEL-28 melanoma) 28.3 µM | GI50 (SK-MEL-5 melanoma) 10.1 µM | GI50 (SK-OV-3 ovarian) 31.3 µM | GI50 (SN12C renal) 17.9 µM | GI50 (SNB-19 CNS) 25.3 µM | GI50 (SNB-75 CNS) 17.7 µM | GI50 (SR leukemia) 10.7 µM | GI50 (SW-620 colon) 18.9 µM | GI50 (T-47D breast) 18.5 µM | GI50 (TK-10 renal) 14.2 µM | GI50 (U251 CNS) 29.8 µM | GI50 (UACC-257 melanoma) 26.4 µM | GI50 (UACC-62 melanoma) 30.5 µM | GI50 (UO-31 renal) 15.1 µM
90.6 µM: TGI (MOLT-4 leukemia)
66.6 µM: TGI (HS 578T breast)
61.8 µM: TGI (OVCAR-4 ovarian)
13.1 µM: TGI (HOP-92 NSCLC)
90.4 µM: TGI (M14 melanoma)
66.1 µM: TGI (OVCAR-3 ovarian)
21.9 µM: TGI (SK-MEL-5 melanoma)
58.5 µM: TGI (MALME-3M melanoma)
72.4 µM: TGI (MCF7 breast)
92.1 µM: TGI (SR leukemia)
48.2 µM: TGI (BT-549 breast)
64.6 µM: TGI (SK-MEL-2 melanoma)
> 100 µM: TGI (786-0 renal) | TGI (A498 renal) | TGI (A549 NSCLC) | TGI (ACHN renal) | TGI (CAKI-1 renal) | TGI (CCRF-CEM leukemia) | TGI (DU-145 prostate) | TGI (EKVX NSCLC) | TGI (HCC-2998 colon) | TGI (HCT-116 colon) | TGI (HCT-15 colon) | TGI (HOP-62 NSCLC) | TGI (HT29 colon) | TGI (IGROV1 ovarian) | TGI (K-562 leukemia) | TGI (KM12 colon) | TGI (LOX IMVI melanoma) | TGI (MDA-MB-231 breast) | TGI (NCI-H226 lung) | TGI (NCI-H23 lung) | TGI (NCI-H460 lung) | TGI (NCI-H522 lung) | TGI (NCI/ADR-RES ovarian) | TGI (OVCAR-5 ovarian) | TGI (OVCAR-8 ovarian) | TGI (PC-3 prostate) | TGI (RPMI-8226 leukemia) | TGI (RXF 393 renal) | TGI (SF-268 CNS) | TGI (SF-295 CNS) | TGI (SF-539 CNS) | TGI (SK-MEL-28 melanoma) | TGI (SK-OV-3 ovarian) | TGI (SN12C renal) | TGI (SNB-19 CNS) | TGI (SNB-75 CNS) | TGI (SW-620 colon) | TGI (TK-10 renal) | TGI (U251 CNS) | TGI (UACC-62 melanoma) | TGI (UO-31 renal)
60.8 µM: TGI (COLO 205 colon)
63.7 µM: TGI (HL-60(TB) leukemia)
active: GI50 (HOP-92 NSCLC) 0.175 µM | GI50 (K-562 leukemia) 0.367 µM
94.5 µM: TGI (UACC-257 melanoma)
81.3 µM: TGI (T-47D breast)
49.1 µM: TGI (MDA-MB-435)
